In US9603831B2, “Artemisinin and its derivatives for use in the treatment of kidney disease” (Queen Mary & Westfield College, University of London, priority 2012, dated 2017):

Columns and labels:
Assay type in all cases: in vivo
[1] = tested on: rats subjected to unilateral renal ischaemia/reperfusion; assay: Late administration in a recovery rat model of unilateral renal ischaemia/reperfusion injury; conditions: 0.3 mg/kg i.v. 24 h into reperfusion, measured at 48 h reperfusion, mean±SEM, P<0.05
Experimental: Thirty-one male Wistar rats (240-270 g, Charles River, Margate, U.K.) were used in this study. Rats were anaesthetised with a ketamine (100 mg/ml) and xylazine (20 mg/ml) mixture (2:1; 1.5 ml/kg, i.p.) and anaesthesia was maintained by supplementary injections (200 μg/kg i.p.) of ketamine/xylazine. Buprenorphine was administered at a dose of 0.1 mg/kg s.c. (0.5 ml/kg). Rats were then, placed onto a thermostatically controlled heating mat (Harvard Apparatus Ltd., Kent, U.K.) set at 37° C. A midline laparotomy was then performed. The anatomical right kidney was removed following permanent ligation of the renal artery and vein. The left renal pedicle (consisting of the renal artery, vein and nerve) was isolated and clamped using a non-traumatic microvascular clamp at time 0 for 30 min. Body temperature was maintained at 35±1° C. during ischaemia by means of measuring rectal temperature with a thermometer. After 30 min of unilateral renal ischaemia, the clamp was removed to allow reperfusion for 48 h. […]
Following the reperfusion period, ˜3.5 ml of blood was taken from the right ventricle of the heart via cardiac puncture into non-heparinised 5 ml syringes and immediately decanted into 1.3 ml serum gel tubes (Sarstedt, Germany). […] All biochemical markers in serum and urine were measured in a blinded fashion by a commercial veterinary testing laboratory (IDEXX Ltd, West Sussex, UK). […] Creatinine clearance is used as an indicator of glomerular dysfunction and is calculated as follows
Fractional excretion of sodium is used as an indicator of tubular dysfunction and is calculated as follows: […]
All data in the text and figures are presented as mean±SEM of n observations, where n represents the number of animals studied. All statistical analysis was calculated using GraphPad Prism 6 (GraphPad Software, San Diego, Calif., USA). Biochemical data was analysed by one-way ANOVA for data representing more than two groups, followed by a Dunnett's post hoc test for comparison of sham/treated groups with the control vehicle. […]

[2] = tested on: rats subjected to haemorrhagic shock; assay: Organ injury and dysfunction induced by trauma haemorrhage (haemorrhagic shock) in the rat; conditions: for rise in serum creatinine / rise in serum urea: 4 h after resuscitation; for rise in serum creatinine / rise in serum urea / rise in serum ALT / rise in serum AST / rise in serum creatinine kinase: vs HS-rats; for decline in MAP caused by haemorrhage during the resuscitation phase: vs HS Control
Experimental: Thirty-five male Wistar rats (271±5 g) were anaesthetised with sodium thiopentone (120 mg/kg i.p., LINK Pharmaceuticals Ltd., West Sussex, UK) and anaesthesia was maintained by supplementary injections (˜10 mg/kg i.v.) of sodium thiopentone as and when required. The animals were placed onto a thermostatically controlled heating mat (Harvard Apparatus Ltd., Kent, UK) and body temperature was maintained at 37±1° C. by means of a rectal probe attached to a homeothermic blanket. A tracheotomy was performed by inserting into the lumen of the trachea a small length of polyethylene tubing [Internal Diameter (ID) 1.67 mm, Portex, Kent, UK] to maintain airway patency and facilitate spontaneous respiration. […] The right carotid artery was cannulated (ID 0.58 mm, Portex) to facilitate the withdrawal of blood using a heparinised syringe. The right jugular vein was cannulated (ID 0.40 mm, Portex) for the administration of Ringer's Lactate (RL), shed blood, test compounds and/or vehicle. The bladder was also cannulated (ID 0.76 mm, Portex) for the collection of urine. Upon completion of the surgical procedure, cardiovascular parameters were allowed to stabilise for a period of 15 min.
After the stabilisation period, blood was withdrawn via the cannula inserted in the right carotid artery in order to achieve a fall in MAP to 35±5 mmHg within 10 min. From this point onwards, MAP was maintained at 35±5 mmHg for a period of 90 min either by further withdrawal of blood during the compensation phase (MAP rises following blood withdrawal due to sympathetic response) or administration of Ringer's Lactate i.v. during the decompensation phase (animals are unable to increase and maintain high MAP). […] At 90 min after initiation of haemorrhage, resuscitation was performed with 20 ml/kg Ringer's Lactate i.v. over a period of 10 min and then half the shed blood mixed with 100 u/ml heparinised saline i.v. over a period of 50 min. At the end of 1 h resuscitation, an i.v. infusion of Ringer's Lactate (1.5 ml/kg/h) was started as fluid replacement and maintained for a further 3 h.
Four hours after the onset of resuscitation, 1.2 ml blood was collected from the right carotid artery and decanted into serum gel tubes (Sarstedt, Numbrecht, Germany), after which the heart was removed to terminate the experiment. The samples were centrifuged (9900 rpm for 3 min) to separate serum from which urea, creatinine, aspartate aminotransferase (AST), alanine aminotransferase (ALT) and creatinine kinase (CK) were measured within 24 hours (Idexx Laboratories Ltd., West Yorkshire, UK). Urine collected during the last 3 h of the experiment was analysed for creatinine levels in order to estimate creatinine clearance as an indicator of glomerular dysfunction and was calculated as follows:
[formula] 1.4 Experimental Design
Rats were randomly allocated into the following groups: • (i) Sham (n=4) • (ii) HS Control (n=10) • (iii) HS+Artesunate 1 mg/kg (n=6) • (iv) HS+Artesunate 3 mg/kg (n=7) • (v) HS+Artesunate 10 mg/kg (n=8)
Sham-operated rats underwent identical surgical procedures but without haemorrhage or resuscitation. Animals received either 10% DMSO (1 ml/kg i.v.) or artesunate (1, 3 or 10 mg/kg i.v.) on resuscitation.
All values described in the text and figures are expressed as mean±standard error of the mean (SEM) for n observations. Each data point represents biochemical measurements obtained from up to 10 separate animals. Statistical analysis was carried out using GraphPad Prism 5.03 (GraphPad Software, San Diego, Calif., USA). Data without repeated measurements was assessed by one-way ANOVA followed by Dunnett's post hoc test. Data with repeated measurements was assessed by two-way ANOVA followed by Bonferroni's post hoc test. A P value of less than 0.05 was considered to be significant.

[3] = tested on: rats subjected to burn injury; assay: Organ injury and dysfunction induced by burn injury in the rat; conditions: 3 mg/kg i.v. 30 min prior to and 30 min after burn injury, 6 h after burn
Experimental: Twenty-two male Wistar rats (Harlan, Udine, Italy) weighing 300 to 350 g were anaesthetised with sodium pentobarbital (Eutasil™, 60 mg/kg i.p.; Sanofi Veterinária, Algés, Portugal), which was supplemented as required. Anaesthetised rats were shaved (dorsum and abdomen) and placed onto a thermostatically controlled heating mat (Harvard Apparatus Ltd, Kent, U.K.) and body temperature maintained at 37±1° C. by means of a rectal probe attached to a homeothermic blanket. A tracheotomy was performed to maintain airway patency and to facilitate spontaneous respiration. Thirty minutes prior to burn injury, rats were treated with vehicle or drug, as described in section 3.2. To induce burn injury, a 60% third degree skin burn was induced by immersing dorsal shaved skin in 99° C. water for 10 s using a synthetic foam template. The rats were then dried and placed over the heating mat. Rats were sacrificed at 6 hours after burn injury by overdose of the anaesthetic and serum samples obtained for analysis of organ injury and dysfunction. Rats were randomly allocated into the following groups: • (i) Sham (n=4) • (ii) Burn+10% DMSO (n=10) • (iii) Burn+Artesunate (n=9) Sham-operated rats underwent identical surgical procedures but without burn injury (immersed in room temperature water). Animals received either 10% DMSO (1 ml/kg i.v.) or artesunate (3 mg/kg i.v.) 30 min prior to burn injury and 30 min after burn injury Each data point represents measurements obtained from up to 10 separate animals. Data was assessed using Mann-Whitney U test.

[4] = 1 mg/kg i.v. on resuscitation, P>0.05
[5] = 3 mg/kg i.v. on resuscitation, P<0.005
[6] = 3 mg/kg i.v. on resuscitation, P<0.05
[7] = 10 mg/kg i.v. on resuscitation, P<0.005
[8] = 10 mg/kg i.v. on resuscitation, P<0.05

C[C@H]1[C@H](OC(=O)CCC(=O)O)O[C@@H]2O[C@@]3(C)CC[C@H]4[C@H](C)CC[C@@H]1[C@@]24OO3 [artesunate]
failed to attenuate: decline in MAP caused by haemorrhage during the resuscitation phase [2, 4] | decline in MAP caused by haemorrhage during the resuscitation phase ([2]; 3 mg/kg i.v. on resuscitation, P>0.05) | decline in MAP caused by haemorrhage during the resuscitation phase ([2]; 10 mg/kg i.v. on resuscitation, P>0.05)
21.63 ± 1.51 mmol/L: serum urea ([1]; IRI+Vehicle 34.13±2.23)
1.90±0.17%: fractional excretion of sodium ([1]; IRI+Vehicle 4.45±0.65)
significantly attenuated: rise in serum creatinine [2, 5] | rise in serum urea [2, 6] | rise in serum ALT [2, 5] | rise in serum AST [2, 6] | rise in serum creatinine kinase [2, 6] | rise in serum creatinine [2, 7] | rise in serum ALT [2, 7] | rise in serum AST [2, 8] | rise in serum creatinine kinase [2, 8] | rise in serum creatinine ([3]; vs burn + vehicle, P<0.05) | rise in serum urea ([3]; vs burn + vehicle, P<0.05)
no significant effect: rise in serum creatinine [2, 4] | rise in serum urea [2, 4] | rise in serum ALT [2, 4] | rise in serum AST [2, 4] | rise in serum creatinine kinase [2, 4] | rise in serum ALT ([3]; P>0.05) | rise in serum AST ([3]; P>0.05)
115.4 ± 9.72 µmol/L: serum creatinine ([1]; IRI+Vehicle 205.90±22.23)
